Read-outs that look alike come from different tables or passages of the source.
Tests used:
[1] = test system: DMS273 cells constantly expressing Luc; experiment: Target reporter protein (Luc) knockdown in cell, reporter protein assay; format: cell-based; details: Homo sapiens, DMS-273
Procedure, shortened: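 Nucleic acid lipid particles added at final 0.1 to 100 nmol/L to DMS273 human SCLC cells stably expressing Luc2, 24 hr exposure then 24 hr further culture after medium change. Luc quantified by Steady Glo luminescence after viable cell count; knockdown efficiency calculated and IC50 taken as concentration giving 50% Luc reduction.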

[2] = Particle size of nucleic acid lipid particles (FVII-siRNA); format: physicochemical
Procedure, shortened: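 Lipid particles formed by micromixing ethanolic ionizable lipid/DSPC/cholesterol/DMG-PEG2000 (50/10/38.5/1.5 mol) with siRNA in pH 4 acetate buffer (3:1 water:oil), diluted with PBS and dialysed against PBS.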

[3] = Nucleic acid encapsulation rate of nucleic acid lipid particles (FVII-siRNA); format: physicochemical
Procedure, shortened: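 Total nucleic acid was measured by adding 30 μL of 3 mol/L sodium acetate and 9 μL of glycogen to 60 μL of FVII-siRNA lipid particles, then precipitating with 1.5 mL ethanol, centrifuging, air-drying, redissolving in water, and reading on a Nanodrop. Outer-phase nucleic acid came from a RiboGreen assay (ex 485 nm, em 535 nm) on samples diluted 10,000× in 1×TE. Encapsulation (%) = (total − outer)/total × 100.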

[4] = test system: Factor VII (FVII) protein; experiment: Measurement of Factor VII (FVII) protein in mouse plasma after FVII-siRNA lipid particles; format: in vivo, C57BL6/J mice; details: 0.1 mg/kg caudal vein, plasma 24 hours after administration, PBS group = 100%
Procedure, shortened: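 C57BL6/J mice (n=3) received FVII-siRNA nucleic acid lipid particles at 0.1 mg/kg into the tail vein; controls got PBS. Each value is the percentage of the PBS-group FVII level.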

[5] = Encapsulation rate of siRNA in nucleic acid lipid particles (Luc2-siRNA); format: physicochemical; details: compound/DSPC/cholesterol/DMG-PEG2000 50/10/38.5/1.5
Procedure, shortened: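 Encapsulation rate was calculated as (total − outer-phase siRNA)/total ×100. Total siRNA was quantified spectrophotometrically after lipid-dissolving ethanol precipitation, and unencapsulated siRNA by RiboGreen in TE (ex 485/em 535 nm). The particles were test lipid/DSPC/cholesterol/DMG-PEG2000 at 50/10/38.5/1.5, formed by microfluidic mixing with Luc2-siRNA at pH 4 and dialyzed against PBS.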

[6] = Particle size of nucleic acid lipid particles (Luc2-siRNA); format: physicochemical; details: compound/DSPC/cholesterol/DMG-PEG2000 50/10/38.5/1.5
Procedure, shortened: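 Lipid particles formed from oil phase (test lipid/DSPC/cholesterol/DMG-PEG2000, 50/10/38.5/1.5 molar, 20 mmol/L total in ethanol) micromixed 1:3 with Luc2-siRNA in pH 4 acetate buffer (19.7 μmol/L); siRNA/lipid 339 mol/mol, PBS-diluted and dialyzed. Size measured on ELS-Z2 dynamic light scattering.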

[7] = Luc2-siRNA lipid particles using the compound, siRNA 0.1 to 100 nmol/L, concentration at which Luc expression is knocked down to 50%, read-out: IC50

SMILES	IC50 [1, 7]	Particle size (nm) [2]	Nucleic acid encapsulation rate [3]	Nucleic acid encapsulation rate [5]	Particle size (nm) [6]	Relative amount of FVII protein (%) [4]	IC50 [1]
CCCCCCCCCC(CCCCCCCCC(=O)OCC(CCCC)CCCCCC)OC(=O)OCCN(CC)CCN(CC)CC (stereo not drawn) [Example 75, 2-Butyloctyl 3,6-diethyl-12-nonyl-10-oxo-9,11-dioxa-3,6-diazahenicosan-21-oate]	8 nM	79.1 nm	83%	76%	65.4 nm	17%	
CCCCCCCCCC(=O)OCCCCCCC(CCCCCCOC(=O)CC(CCCCCCC)CCCCCCC)OC(=O)OCCN(CC)CCN(CC)CC (stereo not drawn) [Example 78, 12-(6-(Decanoyloxy)hexyl)-3,6-diethyl-10-oxo-9,11-dioxa-3,6-diazooctadecan-18-yl 3-heptyldecanoate]		74.2 nm	78%	75%	71.7 nm	10%	16 nM
CCCCCCCC(=O)OCCN(CCOC(=O)OC(CCCCCC)CCCCCCCCC(=O)OCC(CCCC)CCCCCC)CCN(CC)CC (stereo not drawn) [Example 88, 2-Butyloctyl 3-ethyl-12-hexyl-6-(2-(octanoyloxy)ethyl)-10-oxo-9,11-dioxa-3,6-diazahenicosan-21-oate]	23 nM	78.7 nm	83%	81%	74.6 nm	2%	
CCCCCCCCC(CCCCCC)COC(=O)CCCCCCC(CCCCCC)OC(=O)OCCN(CCN(CC)CC)C(C)C (stereo not drawn) [Example 94, 2-Hexyldecyl 3-ethyl-12-hexyl-6-isopropyl-10-oxo-9,11-dioxa-3,6-diazanonadecan-19-oate]	39 nM	86.1 nm	75%	76%	72.7 nm	8%	
CCCCCCCCC(CCCCCC)COC(=O)CCCCCCCCC(CCCCCC)OC(=O)OCCN(CCOC(=O)CCCCC)CCN(CC)CC (stereo not drawn) [Example 100, 2-Hexyldecyl 3-ethyl-6-(2-(hexanoyloxy)ethyl)-12-hexyl-10-oxo-9,11-dioxa-3,6-diazahenicosan-21-oate]	26 nM	85.1 nm	80%	82%	76.7 nm	2%	
CCCCCCC(CCCC)COC(=O)CCCCCCCCC(CCCCCC)OC(=O)OCCN(CCOC(=O)CCCCC)CCN(CC)CC (stereo not drawn) [Example 105, 2-Butyloctyl 3-ethyl-6-(2-(hexanoyloxy)ethyl)-12-hexyl-10-oxo-9,11-dioxa-3,6-diazahenicosan-21-oate]	28 nM	102.4 nm	73%	81%	100 nm	7%	
CCCCCCCCCCCC(=O)OCCN(CCOC(=O)OC(CCCCCC)CCCC(=O)OCC(CCCC)CCCCCC)CCN(CC)CC (stereo not drawn) [Example 106, 2-Butyloctyl 6-(2-(dodecanoyloxy)ethyl)-3-ethyl-12-hexyl-10-oxo-9,11-dioxa-3,6-diazahexadecan-16-oate]	37 nM	66.4 nm	85%	80%	62.4 nm	2%	
CCCCCCCCCC(=O)OCCN(CCOC(=O)OC(CCCCCC)CCCC(=O)OCC(CCCC)CCCCCC)CCN(CC)CC (stereo not drawn) [Example 107, 2-Butyloctyl 6-(2-(decanoyloxy)ethyl)-3-ethyl-12-hexyl-10-oxo-9,11-dioxa-3,6-diazahexadecan-16-oate]	23 nM	70.6 nm	83%	78%	64.8 nm	1%	
CCCCCCCCC(CCCCCC)COC(=O)CCCC(CCCCCC)OC(=O)OCCN(CCOC(=O)CCCCCCC)CCN(CC)CC (stereo not drawn) [Example 111, 2-Hexyldecyl 3-ethyl-12-hexyl-6-(2-(octanoyloxy)ethyl)-10-oxo-9,11-dioxa-3,6-diazahexadecan-16-oate]	42 nM	70.5 nm	88%	93%	63.9 nm	2%	

Further molecules by falling IC50 [1, 7], results first:

IC50 [1, 7]	Particle size (nm) [2]	Nucleic acid encapsulation rate [3]	Nucleic acid encapsulation rate [5]	Particle size (nm) [6]	SMILES	Relative amount of FVII protein (%) [4]	IC50 [1]
34 nM	69.3 nm	87%	79%	69.2 nm	CCCCCCCCCC(=O)OCCN(CCOC(=O)OC(CCCCCC)CCCCCCCCC(=O)OCC(CCCC)CCCCCC)CCN(CC)CC (stereo not drawn) [Example 87, 2-Butyloctyl 6-(2-(decanoyloxy)ethyl)-3-ethyl-12-hexyl-10-oxo-9,11-dioxa-3,6-diazahenicosan-21-oate]	3%	
31 nM	72.4 nm	85%	81%	74.2 nm	CCCCCCC(CCCC)COC(=O)CCCCCCCCC(CCCCCCCCC(=O)OCC(CCCC)CCCCCC)OC(=O)OCCN(CC)CCN(CC)CC (stereo not drawn) [Example 72, Bis(2-butyloctyl)10-(((2-((2-(diethylamino)ethyl)(ethyl)amino)ethoxy)carbonyl)oxy)nonadecanedioate]	6%	
26 nM	62.7 nm	86%	91%	65.7 nm	CCCCCCCCCCCC(=O)OCCN(CCOC(=O)OC(CCCCCC)CCCC(=O)OCC(CCCCCC)CCCCCCCC)CCN(CC)CC (stereo not drawn) [Example 109, 2-Hexyldecyl 6-(2-(dodecanoyloxy)ethyl)-3-ethyl-12-hexyl-10-oxo-9,11-dioxa-3,6-diazahexadecan-16-oate]	3%	
22 nM	67.8 nm	73%	70%	70.4 nm	CCCCCCCC/C=C\CCCCCCCC(=O)OCCN(CCCN(CC)CC)CCOC(=O)OC(CCCCCC)CCCCCCCCC(=O)OCC(CCCC)CCCCCC (stereo not drawn) [Example 93, 2-Butyloctyl 3-ethyl-13-hexyl-7-(2-(oleoyloxy)ethyl)-11-oxo-10,12-dioxa-3,7-diazadocosan-22-oate]	7%	
18 nM	74.2 nm	100%	79%	68.6 nm	CCCCCCCCCCC(CCCCCCCC)COC(=O)CCCC(CCCCCC)OC(=O)OCCN(CCN(CC)CC)C(C)C (stereo not drawn) [Example 112, 2-Octyldodecyl 3-ethyl-12-hexyl-6-isopropyl-10-oxo-9,11-dioxa-3,6-diazahexadecan-16-oate]	3%	
17 nM	66.1 nm	85%	87%	60.7 nm	CCCCCCCCCC(=O)OCCN(CCOC(=O)OC(CCCCCC)CCCC(=O)OCC(CCCCCC)CCCCCCCC)CCN(CC)CC (stereo not drawn) [Example 110, 2-Hexyldecyl 6-(2-(decanoyloxy)ethyl)-3-ethyl-12-hexyl-10-oxo-9,11-dioxa-3,6-diazahexadecan-16-oate]	2%	
14 nM	69.8 nm	79%	80%	64.3 nm	CCCCCCCCC(=O)OCCN(CCOC(=O)OC(CCCCCC)CCCCCCCCC(=O)OCC(CCCC)CCCCCC)CCN(CC)CC (stereo not drawn) [Example 103, 2-Butyloctyl 3-ethyl-12-hexyl-6-(2-(nonanoyloxy)ethyl)-10-oxo-9,11-dioxa-3,6-diazahenicosan-21-oate]	2%	
4 nM	85.8 nm	69%	81%	76.6 nm	CCCCCCC(=O)OCCN(CCOC(=O)OC(CCCCCC)CCCCCCCCC(=O)OCC(CCCC)CCCCCC)CCN(CC)CC (stereo not drawn) [Example 104, 2-Butyloctyl 3-ethyl-6-(2-(heptanoyloxy)ethyl)-12-hexyl-10-oxo-9,11-dioxa-3,6-diazahenicosan-21-oate]	1%	

Reference: US12370143B2, “Compound or salt thereof and lipid particles” (FUJIFILM Corporation, priority 2018, dated 2025)
